Experimental data published in patent publication US20260294890A1, “LONG-TERM PREVENTION AND/OR TREATMENT OF A DISEASE BY SLO-1 INHIBITORS” (Elanco Animal Health GmbH, priority 2023, published 2026).

Tests used:
[1] = Assay 1: half-life and plasma clearance upon intravenous administration to beagle dogs; format: in vivo; details: dog, iv dose up to 0.3 mg/kg, plasma, geometric mean, Phoenix PK/PD (Example 1: internal tool)
Description: Assay 1: Determination of Half-Life and Plasma Clearance of Compounds of the Invention Upon Administration to Beagle Dogs
Compounds according to the invention were administered as an intravenous (iv) dose (up to 0.3 mg/kg) to beagle dogs (minimum n=3). Blood samples were collected from these beagle dogs up to 168 h after intravenous administration and up to 3024 h after subcutaneous administration. A portion of each whole blood sample was processed to plasma. Compound concentrations were determined in plasma using LCMS/MS. Phoenix™ Pharmacokinetic and Pharmacodynamic (PK/PD) was used to determine half-life and plasma clearance values. Only for Example 1, an internal tool available to the inventors was used to determine the half-life and plasma clearance values.

[2] = log P by HPLC on reversed phase columns (LC-MS Method 0); format: physicochemical; details: 0.1% formic acid/acetonitrile; Method 0, acidic range, 0.1% formic acid in water and acetonitrile; read-out: log P (HCOOH)
Description: Measurement of log P values was performed according to EEC directive 79/831 Annex V.A8 by HPLC (High Performance Liquid Chromatography) on reversed phase columns with the following methods, instrument(s): Agilent 1100 LC system, Agilent MSD system, HTS PAL; Waters IClass Acquity UPLC, SQD2 (MS), PDA (UV). • ^[a]log P value is determined by measurement of LC-UV, in an acidic range, with 0.1% formic acid in water and acetonitrile as eluent (linear gradient from 10% acetonitrile to 95% acetonitrile). • ^[b]log P value is determined by measurement of LC-UV, in a neutral range, with 0.001 molar ammonium acetate solution in water and acetonitrile as eluent (linear gradient from 10% acetonitrile to 95% acetonitrile).
Calibration was done with straight-chain alkan-2-ones (with 3 to 16 carbon atoms) with known log P values (measurement of log P values using retention times with linear interpolation between successive alkanones). Lambda-max-values were determined using UV-spectra from 200 nm to 400 nm and the peak values of the chromatographic signals.

clearance [1]: 0.833 mL/min/kg | half-life ([1]; read-out: Half-life (h/Form) iv, geometric mean (converted)): 124 h | chromatographic logP [2]: 1.93
Structure (SMILES): O=C(N[C@H]1CCOc2ccccc21)c1cnc2c(-c3cc(F)cc(F)c3F)c(F)ccc2c1N1CC(F)C1 [Example 7, N-[(4S)-3,4-Dihydro-2H-chromen-4-yl]-7-fluoro-4-(3-fluoroazetidin-1-yl)-8-(2,3,5-trifluorophenyl)quinoline-3-carboxamide]
